Experimental findings from the supplement of paper PMC10307832 are described below.

What all share (assay): relative viability (nuclei count vs DMSO), 5 days (fraction); higher = more cells survive
Compound in the assay “ALW-II-49-7 + Pictilisib”: Cc1ccc(C(=O)Nc2cccc(C(F)(F)F)c2)cc1Nc1cncc(C(N)=O)c1 [ALW-II-49-7] + CS(=O)(=O)N1CCN(Cc2cc3nc(-c4cccc5[nH]ncc45)nc(N4CCOCC4)c3s2)CC1 [Pictilisib] (partner 1 µM)
An outline of the steps: (§1)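 The day after seeding in 1536-well plates, lung cancer cell lines were treated by pin tool with a single drug, or with a fixed anchor-drug dose together with five library-drug doses (not always all listed) in √10 steps. After 5 days, a combined fix-and-stain solution (final 0.05% Triton X-100, 1% formaldehyde, 1 ug/ml Hoechst) was added. Nuclei counted on 4× images gave relative viability as treated counts over vehicle counts, reported as the median of duplicate plates.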

Compound in the assay “ALW-II-49-7 + AZD7762”: Cc1ccc(C(=O)Nc2cccc(C(F)(F)F)c2)cc1Nc1cncc(C(N)=O)c1 [ALW-II-49-7] + NC(=O)Nc1cc(-c2cccc(F)c2)sc1C(=O)N[C@H]1CCCNC1 [AZD7762] (partner 0.2 µM)
An outline of the steps: as §1

Compound in the assay “XMD13-2 + Crizotinib”: C1CC1C(=O)NC2=NNC3=C2C=CC(=C3)C4=CC(=CC=C4)C(=O)NC5CC5 [XMD13-2] + C[C@@H](Oc1cc(-c2cnn(C3CCNCC3)c2)cnc1N)c1c(Cl)ccc(F)c1Cl [Crizotinib] (partner 1 µM)
In outline:
as §1

Compound in the assay “Dasatinib + Linsitinib”: Cc1nc(Nc2ncc(C(=O)Nc3c(C)cccc3Cl)s2)cc(N2CCN(CCO)CC2)n1 [Dasatinib] + C[C@]1(O)C[C@@H](c2nc(-c3ccc4ccc(-c5ccccc5)nc4c3)c3c(N)nccn32)C1 [Linsitinib] (partner 1 µM)
An outline of the steps: as §1

On to NCI-H2126, for which the relative viability was 0.493 with ALW-II-49-7 + Pictilisib (first compound 0.08 µM); 0.473 in the assay with ALW-II-49-7 + Pictilisib (first compound 0.253 µM); 0.514 with ALW-II-49-7 + Pictilisib (first compound 0.8 µM); 0.471 with ALW-II-49-7 + Pictilisib (first compound 2.53 µM); 0.502 with ALW-II-49-7 + Pictilisib (first compound 8 µM); 0.981 with ALW-II-49-7 + AZD7762 (first compound 0.08 µM). Besides, the relative viability stood at 1.05 with ALW-II-49-7 + AZD7762 (first compound 0.253 µM); 0.913 in the assay with ALW-II-49-7 + AZD7762 (first compound 0.8 µM); 1 with ALW-II-49-7 + AZD7762 (first compound 2.53 µM); 0.984 in the assay with ALW-II-49-7 + AZD7762 (first compound 8 µM); 1.08 with XMD13-2 + Crizotinib (first compound 0.05 µM); 0.979 with XMD13-2 + Crizotinib (first compound 0.1581 µM). Also, the relative viability came out at 1.04 with XMD13-2 + Crizotinib (first compound 0.5 µM); 0.998 in the assay with XMD13-2 + Crizotinib (first compound 1.581 µM); 1.06 in the assay with XMD13-2 + Crizotinib (first compound 5 µM); 0.636 in the assay with Dasatinib + Linsitinib (first compound 0.005 µM); 0.582 with Dasatinib + Linsitinib (first compound 0.01581 µM); 0.589 with Dasatinib + Linsitinib (first compound 0.05 µM). The figures for the relative viability with Dasatinib + Linsitinib (first compound 0.1581 µM) and with Dasatinib + Linsitinib (first compound 0.5 µM) were 0.422 and 0.264, respectively.

Take NCI-H2347: the relative viability in the assay with ALW-II-49-7 + Pictilisib (first compound 0.08 µM) amounted to 0.519; with ALW-II-49-7 + Pictilisib (first compound 0.253 µM), 0.505; with ALW-II-49-7 + Pictilisib (first compound 0.8 µM), 0.505; in the assay with ALW-II-49-7 + Pictilisib (first compound 2.53 µM), 0.633; with ALW-II-49-7 + Pictilisib (first compound 8 µM), 0.493; in the assay with ALW-II-49-7 + AZD7762 (first compound 0.08 µM) it was 1.02. Further, the relative viability stood at 0.727 with ALW-II-49-7 + AZD7762 (first compound 0.253 µM); 0.606 with ALW-II-49-7 + AZD7762 (first compound 0.8 µM); 0.676 with ALW-II-49-7 + AZD7762 (first compound 2.53 µM); 0.638 with ALW-II-49-7 + AZD7762 (first compound 8 µM); 0.739 with XMD13-2 + Crizotinib (first compound 0.05 µM); 0.676 with XMD13-2 + Crizotinib (first compound 0.1581 µM). The relative viability with XMD13-2 + Crizotinib (first compound 0.5 µM) was found to be 0.772; with XMD13-2 + Crizotinib (first compound 1.581 µM), 0.906; with XMD13-2 + Crizotinib (first compound 5 µM), 0.73; with Dasatinib + Linsitinib (first compound 0.005 µM) it was 1.01; in the assay with Dasatinib + Linsitinib (first compound 0.01581 µM) it was 0.935; with Dasatinib + Linsitinib (first compound 0.05 µM) it was 0.943. Moreover, the relative viability in the assay with Dasatinib + Linsitinib (first compound 0.1581 µM) came to 0.402; with Dasatinib + Linsitinib (first compound 0.5 µM), 0.159.

With NCI-H2405, the relative viability came out at 0.409 with ALW-II-49-7 + Pictilisib (first compound 0.08 µM); 0.526 in the assay with ALW-II-49-7 + Pictilisib (first compound 0.253 µM); 0.368 with ALW-II-49-7 + Pictilisib (first compound 0.8 µM); 0.345 with ALW-II-49-7 + Pictilisib (first compound 2.53 µM); 0.366 with ALW-II-49-7 + Pictilisib (first compound 8 µM); 0.746 with ALW-II-49-7 + AZD7762 (first compound 0.08 µM). The relative viability stood at 0.808 with ALW-II-49-7 + AZD7762 (first compound 0.253 µM); 0.553 in the assay with ALW-II-49-7 + AZD7762 (first compound 0.8 µM); 0.645 with ALW-II-49-7 + AZD7762 (first compound 2.53 µM); 0.485 with ALW-II-49-7 + AZD7762 (first compound 8 µM); 0.932 with XMD13-2 + Crizotinib (first compound 0.05 µM); 0.84 with XMD13-2 + Crizotinib (first compound 0.1581 µM). Further, the relative viability with XMD13-2 + Crizotinib (first compound 0.5 µM) was 0.971; with XMD13-2 + Crizotinib (first compound 1.581 µM) it was 0.846; with XMD13-2 + Crizotinib (first compound 5 µM) it was 0.837; with Dasatinib + Linsitinib (first compound 0.005 µM) it was 0.699; with Dasatinib + Linsitinib (first compound 0.01581 µM), 0.392; with Dasatinib + Linsitinib (first compound 0.05 µM), 0.336. The relative viability is 0.253 in the assay with Dasatinib + Linsitinib (first compound 0.1581 µM) and 0.167 in the assay with Dasatinib + Linsitinib (first compound 0.5 µM).

As to NCI-H3122, the relative viability with ALW-II-49-7 + Pictilisib (first compound 0.08 µM) worked out at 0.695; with ALW-II-49-7 + Pictilisib (first compound 0.253 µM), 0.458; in the assay with ALW-II-49-7 + Pictilisib (first compound 0.8 µM), 0.614; with ALW-II-49-7 + Pictilisib (first compound 2.53 µM) it was 0.708; in the assay with ALW-II-49-7 + Pictilisib (first compound 8 µM), 0.971; with ALW-II-49-7 + AZD7762 (first compound 0.08 µM) it was 1.05. Moreover, the relative viability is 0.853 with ALW-II-49-7 + AZD7762 (first compound 0.253 µM); 1.06 in the assay with ALW-II-49-7 + AZD7762 (first compound 0.8 µM); 1.05 in the assay with ALW-II-49-7 + AZD7762 (first compound 2.53 µM); 1.03 in the assay with ALW-II-49-7 + AZD7762 (first compound 8 µM); 0.308 in the assay with XMD13-2 + Crizotinib (first compound 0.05 µM); 0.289 in the assay with XMD13-2 + Crizotinib (first compound 0.1581 µM). For the same cell line, the relative viability in the assay with XMD13-2 + Crizotinib (first compound 0.5 µM) amounted to 0.267; with XMD13-2 + Crizotinib (first compound 1.581 µM), 0.251; with XMD13-2 + Crizotinib (first compound 5 µM), 0.249; with Dasatinib + Linsitinib (first compound 0.005 µM) it was 1.03; with Dasatinib + Linsitinib (first compound 0.01581 µM), 1.05; with Dasatinib + Linsitinib (first compound 0.05 µM), 1.03. For the same cell line, the relative viability amounted to 0.762 with Dasatinib + Linsitinib (first compound 0.1581 µM) and 0.815 with Dasatinib + Linsitinib (first compound 0.5 µM).

With PC-3 [JPC-3], the relative viability with ALW-II-49-7 + Pictilisib (first compound 0.08 µM) was found to be 0.657; in the assay with ALW-II-49-7 + Pictilisib (first compound 0.253 µM) it was 0.799; in the assay with ALW-II-49-7 + Pictilisib (first compound 0.8 µM), 0.745; with ALW-II-49-7 + Pictilisib (first compound 2.53 µM) it was 0.711; with ALW-II-49-7 + Pictilisib (first compound 8 µM), 0.616; with ALW-II-49-7 + AZD7762 (first compound 0.08 µM), 0.738. Moreover, the relative viability with ALW-II-49-7 + AZD7762 (first compound 0.253 µM) was found to be 0.735; with ALW-II-49-7 + AZD7762 (first compound 0.8 µM), 0.68; in the assay with ALW-II-49-7 + AZD7762 (first compound 2.53 µM), 0.801; with ALW-II-49-7 + AZD7762 (first compound 8 µM), 0.672; with XMD13-2 + Crizotinib (first compound 0.05 µM), 1.02; in the assay with XMD13-2 + Crizotinib (first compound 0.1581 µM) it was 0.897. Besides, the relative viability with XMD13-2 + Crizotinib (first compound 0.5 µM) came to 0.963; with XMD13-2 + Crizotinib (first compound 1.581 µM) it was 1.01; with XMD13-2 + Crizotinib (first compound 5 µM), 0.847; with Dasatinib + Linsitinib (first compound 0.005 µM) it was 0.976; in the assay with Dasatinib + Linsitinib (first compound 0.01581 µM) it was 0.97; in the assay with Dasatinib + Linsitinib (first compound 0.05 µM), 1.07. Further, the relative viability is 1.06 in the assay with Dasatinib + Linsitinib (first compound 0.1581 µM) and 0.633 with Dasatinib + Linsitinib (first compound 0.5 µM).

Regarding PC-14, the relative viability is 0.602 with ALW-II-49-7 + Pictilisib (first compound 0.08 µM); 0.599 with ALW-II-49-7 + Pictilisib (first compound 0.253 µM); 0.696 with ALW-II-49-7 + Pictilisib (first compound 0.8 µM); 0.544 with ALW-II-49-7 + Pictilisib (first compound 2.53 µM); 0.553 with ALW-II-49-7 + Pictilisib (first compound 8 µM); 0.445 with ALW-II-49-7 + AZD7762 (first compound 0.08 µM). Also, the relative viability in the assay with ALW-II-49-7 + AZD7762 (first compound 0.253 µM) amounted to 0.318; in the assay with ALW-II-49-7 + AZD7762 (first compound 0.8 µM) it was 0.447; in the assay with ALW-II-49-7 + AZD7762 (first compound 8 µM), 0.236; with XMD13-2 + Crizotinib (first compound 0.05 µM) it was 1.03; with XMD13-2 + Crizotinib (first compound 0.1581 µM) it was 0.961; with XMD13-2 + Crizotinib (first compound 0.5 µM), 0.909. The relative viability with XMD13-2 + Crizotinib (first compound 1.581 µM) stood at 0.818; with XMD13-2 + Crizotinib (first compound 5 µM) it was 0.969; with Dasatinib + Linsitinib (first compound 0.005 µM) it was 1; with Dasatinib + Linsitinib (first compound 0.01581 µM), 0.968; in the assay with Dasatinib + Linsitinib (first compound 0.05 µM), 0.93; in the assay with Dasatinib + Linsitinib (first compound 0.1581 µM), 0.546. Besides, the relative viability with Dasatinib + Linsitinib (first compound 0.5 µM) worked out at 0.281.

RERF-LC-KJ: the relative viability with ALW-II-49-7 + Pictilisib (first compound 0.08 µM) was found to be 0.599; with ALW-II-49-7 + Pictilisib (first compound 0.253 µM) it was 0.557; in the assay with ALW-II-49-7 + Pictilisib (first compound 0.8 µM), 0.608; in the assay with ALW-II-49-7 + Pictilisib (first compound 2.53 µM) it was 0.542; with ALW-II-49-7 + Pictilisib (first compound 8 µM), 0.624; with ALW-II-49-7 + AZD7762 (first compound 0.08 µM), 1.15. Moreover, the relative viability came to 0.995 with ALW-II-49-7 + AZD7762 (first compound 0.253 µM); 0.827 with ALW-II-49-7 + AZD7762 (first compound 0.8 µM); 0.975 with ALW-II-49-7 + AZD7762 (first compound 2.53 µM); 0.956 with ALW-II-49-7 + AZD7762 (first compound 8 µM); 0.865 in the assay with XMD13-2 + Crizotinib (first compound 0.05 µM); 0.85 with XMD13-2 + Crizotinib (first compound 0.1581 µM). The relative viability came out at 0.816 in the assay with XMD13-2 + Crizotinib (first compound 0.5 µM); 0.771 in the assay with XMD13-2 + Crizotinib (first compound 1.581 µM); 0.801 with XMD13-2 + Crizotinib (first compound 5 µM); 0.896 in the assay with Dasatinib + Linsitinib (first compound 0.005 µM); 0.845 with Dasatinib + Linsitinib (first compound 0.01581 µM); 0.862 with Dasatinib + Linsitinib (first compound 0.05 µM). In addition, the relative viability with Dasatinib + Linsitinib (first compound 0.1581 µM) stood at 0.67; with Dasatinib + Linsitinib (first compound 0.5 µM) it was 0.634.
